The values that follow come from PubChem BioAssay AID1259407 (Chemical Carcinogenesis Research Information System (CCRIS), 2018).

Activity calls are given as the source filed them. How the calls were made is not given here.

The data set concerns CCRIS mutagenicity, Ames/micronucleus/aberration tests. As to the kind of experiment: CCRIS mutagenicity studies.
Where [1] appears, read: Test System: AMES SALMONELLA TYPHIMURIUM, Strain/Indicator: TA98, Metabolic Activation: NONE, Method: PREINCUBATION
Setting [2] is: Test System: AMES SALMONELLA TYPHIMURIUM, Strain/Indicator: TA100, Metabolic Activation: NONE, Method: STANDARD PLATE.
The mark [3] stands for this setting: Test System: AMES SALMONELLA TYPHIMURIUM, Strain/Indicator: TA1535, Metabolic Activation: NONE, Method: PREINCUBATION
Setting [4] is: Test System: AMES SALMONELLA TYPHIMURIUM, Strain/Indicator: TA1537, Metabolic Activation: NONE, Method: PREINCUBATION
Where [5] appears, read: Test System: AMES SALMONELLA TYPHIMURIUM, Strain/Indicator: TA1538, Metabolic Activation: NONE, Method: PREINCUBATION
[6] abbreviates: Test System: AMES SALMONELLA TYPHIMURIUM, Strain/Indicator: TA98, Metabolic Activation: NONE, Method: STANDARD PLATE.
[7] abbreviates: Test System: AMES SALMONELLA TYPHIMURIUM, Strain/Indicator: TA1535, Metabolic Activation: NONE, Method: STANDARD PLATE.
Setting [8] is: Test System: AMES SALMONELLA TYPHIMURIUM, Strain/Indicator: TA1537, Metabolic Activation: NONE, Method: STANDARD PLATE.
Setting [9] is: Test System: AMES SALMONELLA TYPHIMURIUM, Strain/Indicator: TA1538, Metabolic Activation: NONE, Method: STANDARD PLATE.
Where [10] appears, read: Test System: Mouse lymphoma, Strain/Indicator: L5178Y (tk+/tk-), Metabolic Activation: None, Method: Suspension/plate.

Take `O=[N+]([O-])c1cc(Cl)ccc1Cl`: the mutagenic call was “active; positive (structural changes); authors report equivocal results for ploidy chang” (End Point: IN VITRO CHROMOSOMAL ABERRATIONS, Test System: CHL CELLS, Metabolic Activation: RAT, LIVER, S-9, SODIUM PHENOBARBITAL AND 5,6-BENZOFLAVONE); “inactive; negative” under setting [1]; “inactive; negative” (Test System: AMES SALMONELLA TYPHIMURIUM, Strain/Indicator: TA98, Metabolic Activation: RAT LIVER S-9, PHENOBARBITAL AND BETA-NAPHTHOFLAVONE, Method: PREINCUBATION); “inactive; negative” (Test System: AMES SALMONELLA TYPHIMURIUM, Strain/Indicator: TA98, Metabolic Activation: RAT, LIVER, S-9, KANECHLOR 500, Method: PREINCUBATION); “inactive; negative” under setting [2]; “active; positive” (Test System: AMES SALMONELLA TYPHIMURIUM, Strain/Indicator: TA100, Metabolic Activation: RAT LIVER S-9, PHENOBARBITAL AND BETA-NAPHTHOFLAVONE, Method: PREINCUBATION). Further, the mutagenic call is “active; positive” (Test System: AMES SALMONELLA TYPHIMURIUM, Strain/Indicator: TA100, Metabolic Activation: RAT, LIVER, S-9, KANECHLOR 500, Method: PREINCUBATION); “inactive; negative” under setting [3]; “inactive; negative” (Test System: AMES SALMONELLA TYPHIMURIUM, Strain/Indicator: TA1535, Metabolic Activation: RAT LIVER S-9, PHENOBARBITAL AND BETA-NAPHTHOFLAVONE, Method: PREINCUBATION); “inactive; negative” under setting [4]; “inactive; negative” (Test System: AMES SALMONELLA TYPHIMURIUM, Strain/Indicator: TA1537, Metabolic Activation: RAT LIVER S-9, PHENOBARBITAL AND BETA-NAPHTHOFLAVONE, Method: PREINCUBATION); “inactive; negative” under setting [5]. Besides, the mutagenic call was “inactive; negative” (Test System: AMES SALMONELLA TYPHIMURIUM, Strain/Indicator: TA1538, Metabolic Activation: RAT LIVER S-9, PHENOBARBITAL AND BETA-NAPHTHOFLAVONE, Method: PREINCUBATION); “inactive; negative” (Test System: E.COLI, Strain/Indicator: WP2UVRA, Metabolic Activation: NONE, Method: PREINCUBATION); “inactive; negative” (Test System: E.COLI, Strain/Indicator: WP2UVRA, Metabolic Activation: RAT LIVER S-9, PHENOBARBITAL AND BETA-NAPHTHOFLAVONE, Method: PREINCUBATION).
`Cc1cn2c(N=O)c(-c3ccc([N+](=O)[O-])cc3)nc2s1`: the mutagenic call reads like this: under setting [6], “active; positive”; under setting [2], “active; positive”; under setting [7], “inactive; negative”; under setting [8], “inactive; negative”; under setting [9], “active; positive”.
As for `Cc1c(-c2ccccc2)oc2c(C(=O)OCCN3CCCCC3)cccc2c1=O`, the mutagenic call is, setting by setting: under setting [6], “inactive; negative”; (Test System: AMES SALMONELLA TYPHIMURIUM, Strain/Indicator: TA98, Metabolic Activation: S-9, Method: STANDARD PLATE) “inactive; negative”; under setting [2], “inactive; negative”; (Test System: AMES SALMONELLA TYPHIMURIUM, Strain/Indicator: TA100, Metabolic Activation: S-9, Method: STANDARD PLATE) “inactive; negative”; under setting [7], “inactive; negative”; (Test System: AMES SALMONELLA TYPHIMURIUM, Strain/Indicator: TA1535, Metabolic Activation: S-9, Method: STANDARD PLATE) “inactive; negative”. The mutagenic call runs as follows: under setting [8], “inactive; negative”; (Test System: AMES SALMONELLA TYPHIMURIUM, Strain/Indicator: TA1537, Metabolic Activation: S-9, Method: STANDARD PLATE) “inactive; negative”; under setting [9], “inactive; negative”; (Test System: AMES SALMONELLA TYPHIMURIUM, Strain/Indicator: TA1538, Metabolic Activation: S-9, Method: STANDARD PLATE) “inactive; negative”.
`O=C(c1ccccc1)n1ncc(Cl)c(Cl)c1=O`: the mutagenic call under setting [6] was “inactive; negative”; the mutagenic call (Test System: AMES SALMONELLA TYPHIMURIUM, Strain/Indicator: TA98, Metabolic Activation: RAT, LIVER, S-9, AROCLOR 1254, Method: STANDARD PLATE) is “inactive; negative”; the mutagenic call under setting [2] was “inactive; negative”; the mutagenic call (Test System: AMES SALMONELLA TYPHIMURIUM, Strain/Indicator: TA100, Metabolic Activation: RAT, LIVER, S-9, AROCLOR 1254, Method: STANDARD PLATE) was “inactive; negative”; the mutagenic call under setting [7] was “inactive; negative”; the mutagenic call (Test System: AMES SALMONELLA TYPHIMURIUM, Strain/Indicator: TA1535, Metabolic Activation: RAT, LIVER, S-9, AROCLOR 1254, Method: STANDARD PLATE) is “inactive; negative”. For the same molecule, the mutagenic call under setting [8] is “inactive; negative” and the mutagenic call (Test System: AMES SALMONELLA TYPHIMURIUM, Strain/Indicator: TA1537, Metabolic Activation: RAT, LIVER, S-9, AROCLOR 1254, Method: STANDARD PLATE) was “inactive; negative”.
As to `CCCS`, the mutagenic call (Test System: MOUSE LYMPHOMA, Strain/Indicator: L5178Y (TK+/TK-), Metabolic Activation: RAT, LIVER, S-9, AROCLOR 1254, Method: SUSPENSION/PLATE) is “active; positive. reevaluation of results: equivocal” and the mutagenic call under setting [10] is “inactive; negative”.
`CCN(Cc1cccc(S(=O)(=O)O)c1)c1ccc(C(=C2C=CC(=[N+](CC)Cc3cccc(S(=O)(=O)O)c3)C=C2)c2ccc(O)cc2S(=O)(=O)[O-])cc1`: the mutagenic call reads like this: (End Point: IN VIVO MICRONUCLEUS, Test System: BONE MARROW POLYCHROMATIC ERYTHROCYTES, Species: MOUSE, Strain/Sex: DDY/MALE, Route: IP) “inactive; negative”; under setting [10], “inactive; negative”; (Test System: Mouse lymphoma, Strain/Indicator: L5178Y (tk+/tk-), Metabolic Activation: Rat, Liver, S-9, Aroclor 1254, Method: Suspension/plate) “inactive; negative”.
As to `O=S(=O)(O)OOS(=O)(=O)O`, the mutagenic call is, setting by setting: (Test System: AMES SALMONELLA TYPHIMURIUM, Strain/Indicator: TA97, Metabolic Activation: NONE, Method: PREINCUBATION) “inactive; negative”; (Test System: AMES SALMONELLA TYPHIMURIUM, Strain/Indicator: TA97, Metabolic Activation: RAT, LIVER, S-9, AROCLOR 1254, Method: PREINCUBATION) “inactive; negative”; under setting [1], “inactive; negative”; (Test System: AMES SALMONELLA TYPHIMURIUM, Strain/Indicator: TA98, Metabolic Activation: RAT, LIVER, S-9, KC 500, Method: PREINCUBATION) “inactive; negative”; (Test System: AMES SALMONELLA TYPHIMURIUM, Strain/Indicator: TA100, Metabolic Activation: NONE, Method: PREINCUBATION) “inactive; negative”; (Test System: AMES SALMONELLA TYPHIMURIUM, Strain/Indicator: TA100, Metabolic Activation: RAT, LIVER, S-9, KC 500, Method: PREINCUBATION) “inactive; negative”. Further, the mutagenic call is “inactive; negative” (Test System: AMES SALMONELLA TYPHIMURIUM, Strain/Indicator: TA102, Metabolic Activation: NONE, Method: PREINCUBATION); “inactive; negative” (Test System: AMES SALMONELLA TYPHIMURIUM, Strain/Indicator: TA102, Metabolic Activation: RAT, LIVER, S-9, AROCLOR 1254, Method: PREINCUBATION); “inactive; negative” under setting [3]; “inactive; negative” (Test System: AMES SALMONELLA TYPHIMURIUM, Strain/Indicator: TA1535, Metabolic Activation: RAT, LIVER, S-9, KC 500, Method: PREINCUBATION); “inactive; negative” under setting [4]; “inactive; negative” (Test System: AMES SALMONELLA TYPHIMURIUM, Strain/Indicator: TA1537, Metabolic Activation: RAT, LIVER, S-9, KC 500, Method: PREINCUBATION). Also, the mutagenic call under setting [5] was “inactive; negative”; the mutagenic call (Test System: AMES SALMONELLA TYPHIMURIUM, Strain/Indicator: TA1538, Metabolic Activation: RAT, LIVER, S-9, KC 500, Method: PREINCUBATION) was “inactive; negative”; the mutagenic call (Test System: E. COLI, Strain/Indicator: WP2 UVRA, Metabolic Activation: NONE, Method: PREINCUBATION) was “inactive; negative”; the mutagenic call (Test System: E. COLI, Strain/Indicator: WP2 UVRA, Metabolic Activation: RAT, LIVER, S-9, KC 500, Method: PREINCUBATION) is “inactive; negative”.
